Patent US12195482B1 (Arcus Biosciences, Inc., priority 2022, dated 2025)

How the values were obtained:
[1] = target: T1, recombinant human MER (Homo sapiens, UniProt Q12866); test: Biochemical potency, HTRF KinEASE-TK kinase assay; conditions: 1 nM MER, 700 μM ATP
T1 construct: purchased Invitrogen
T1 sequence (Q12866 21-999): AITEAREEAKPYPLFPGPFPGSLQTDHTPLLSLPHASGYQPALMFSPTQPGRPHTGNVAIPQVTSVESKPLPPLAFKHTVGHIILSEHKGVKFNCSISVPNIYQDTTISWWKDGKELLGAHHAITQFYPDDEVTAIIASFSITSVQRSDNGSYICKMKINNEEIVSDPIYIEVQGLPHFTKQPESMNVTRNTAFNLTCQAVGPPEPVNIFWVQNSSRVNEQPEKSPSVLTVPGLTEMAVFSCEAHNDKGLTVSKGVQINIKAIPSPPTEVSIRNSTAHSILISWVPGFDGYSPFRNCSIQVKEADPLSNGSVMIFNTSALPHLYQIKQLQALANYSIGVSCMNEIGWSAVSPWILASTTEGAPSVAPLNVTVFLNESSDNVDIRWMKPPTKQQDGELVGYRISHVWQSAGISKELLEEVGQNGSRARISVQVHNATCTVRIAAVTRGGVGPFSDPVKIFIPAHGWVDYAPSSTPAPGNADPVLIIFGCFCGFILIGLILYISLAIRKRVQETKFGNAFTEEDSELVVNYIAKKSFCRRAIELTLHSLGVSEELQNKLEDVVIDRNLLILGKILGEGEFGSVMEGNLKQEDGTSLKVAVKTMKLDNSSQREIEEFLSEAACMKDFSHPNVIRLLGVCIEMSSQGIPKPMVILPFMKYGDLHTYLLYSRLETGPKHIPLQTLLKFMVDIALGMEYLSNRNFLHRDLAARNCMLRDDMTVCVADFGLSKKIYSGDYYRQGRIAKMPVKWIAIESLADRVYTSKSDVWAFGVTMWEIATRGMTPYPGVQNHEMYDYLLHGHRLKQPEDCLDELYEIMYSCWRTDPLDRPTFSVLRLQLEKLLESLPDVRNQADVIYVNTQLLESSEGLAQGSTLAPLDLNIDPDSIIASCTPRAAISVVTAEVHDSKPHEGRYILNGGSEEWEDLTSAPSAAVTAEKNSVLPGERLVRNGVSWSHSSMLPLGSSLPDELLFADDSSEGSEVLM
Procedure: (§1) Measurement of Biochemical Compound Potency of Axl Inhibitors
(§2) Purified recombinant human AXL, TYRO3 and MER proteins were purchased from Invitrogen™. 10 nM AXL, 2 nM TYRO3 or MER were incubated with varying concentrations of compounds in 50 mM HEPES, pH 7.4, 10 mM MgCl2, 0.01% BSA, 1 mM DTT and 2% DMSO in a total volume of 20 μl in a 384-well microplate (Corning™ #3640) at RT for 1 h. The AXL, TYRO3 and MER enzymatic reaction was initiated by transferring 10 μl of enzyme and compound mixture into 10 μl of 1.6 μM TK Substrate-biotin (HTRF® KinEASE-TK kit, Cisbio) and 1400 μM ATP pre-incubated in 50 mM HEPES, pH 7.4, 10 mM MgCl2, 0.01% BSA, 1 mM DTT in a 384-well microplate (Corning™ #3640) at RT, giving the final reaction conditions: 5 nM AXL, 1 nM TYRO3 or MER, 800 nM TK Substrate-biotin and 700 μM ATP in 50 mM HEPES, pH 7.4, 10 mM MgCl2, 0.01% BSA, 1 mM DTT and 1% DMSO with varying concentrations of compounds. Following 2 h incubation at RT, the AXL, TYRO3 and MER enzymatic reaction was stopped by transfer of 10 μl of reaction into 10 μl of detection mix (400 nM Streptavidin-XL665, 200-fold dilution TK Antibody-Cryptate and detection buffer, HTRF® KinEASE-TK kit, Cisbio) in a white 384-well microplate (Perkin Elmer, OptiPlate 384). After 1 h incubation at RT, the plate was put into a plate reader (Evision) to read at 665/620 nm (acceptor/donor) for HTRF. The value of the DMSO blank (MIN inhibition=100% activity) was used as a negative control. The positive control was established by adding 5 μl of enzyme and DMSO mixture into 10 μl of detection mix followed by addition of 5 μl of TK Substrate-biotin and ATP mixture (MAX inhibition=0% activity). To calculate the percent activity, Equation 1 was used. Ratio665/620 is the value at a given compound concentration: […]

[2] = target: T2, recombinant human TYRO3 (Homo sapiens, UniProt Q06418); test: Biochemical potency, HTRF KinEASE-TK kinase assay; conditions: 1 nM TYRO3, 700 μM ATP
T2 construct: purchased Invitrogen
T2 sequence (Q06418 41-890): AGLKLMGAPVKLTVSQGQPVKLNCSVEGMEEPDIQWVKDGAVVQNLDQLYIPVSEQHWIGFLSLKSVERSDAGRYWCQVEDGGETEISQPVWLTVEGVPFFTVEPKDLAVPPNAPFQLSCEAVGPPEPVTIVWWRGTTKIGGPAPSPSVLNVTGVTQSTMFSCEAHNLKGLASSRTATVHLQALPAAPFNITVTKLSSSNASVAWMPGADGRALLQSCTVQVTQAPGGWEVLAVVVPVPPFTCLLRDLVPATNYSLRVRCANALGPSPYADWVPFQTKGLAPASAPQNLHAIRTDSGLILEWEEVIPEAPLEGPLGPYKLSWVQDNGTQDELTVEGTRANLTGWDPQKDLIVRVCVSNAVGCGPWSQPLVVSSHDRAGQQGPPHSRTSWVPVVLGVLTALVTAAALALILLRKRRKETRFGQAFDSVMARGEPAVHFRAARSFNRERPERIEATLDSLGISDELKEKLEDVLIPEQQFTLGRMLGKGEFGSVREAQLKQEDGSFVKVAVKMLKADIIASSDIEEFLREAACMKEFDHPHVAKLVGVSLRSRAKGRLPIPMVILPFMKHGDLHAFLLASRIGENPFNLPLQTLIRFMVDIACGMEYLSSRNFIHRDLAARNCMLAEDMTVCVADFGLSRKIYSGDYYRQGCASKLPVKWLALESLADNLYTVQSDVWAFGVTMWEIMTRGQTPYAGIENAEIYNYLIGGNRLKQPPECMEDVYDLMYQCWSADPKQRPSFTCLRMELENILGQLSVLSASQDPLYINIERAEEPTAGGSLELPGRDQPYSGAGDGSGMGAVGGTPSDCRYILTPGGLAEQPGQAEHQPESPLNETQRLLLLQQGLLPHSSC
Procedure: as §1, §2

Compound | IC50 [1] [nM] | IC50 [2] [nM]
CN(C)S(=O)(=O)c1cccnc1-c1ccc(-c2c[nH]c3ncc(-c4ccc5c(c4)CC[C@@H](N4C6COCC4C6)CC5)cc23)cc1 [Example 6, N,N-Dimethyl-2-(4-{5-[(7S)-7-{3-oxa-6-azabicyclo[3.1.1]heptan-6-yl}-6,7,8,9-tetrahydro-5H-benzo[7]annulen-2-yl]-1H-pyrrolo[2,3-b]pyridin-3-yl}phenyl)pyridine-3-sulfonamide] | 100 to 1000 | 100 to 1000
c1ccc(-n2cc(-c3n[nH]c4ncc(-c5ccc6c(c5)CC[C@@H](N5C7COCC5C7)CC6)cc34)cn2)nc1 [Example 168, 6-[(7S)-2-{3-[1-(Pyridin-2-yl)-1H-pyrazol-4-yl]-1H-pyrazolo[3,4-b]pyridin-5-yl}-6,7,8,9-tetrahydro-5H-benzo[7]annulen-7-yl]-3-oxa-6-azabicyclo[3.1.1]heptane] | 100 to 1000 | 100 to 1000
Cc1ccccc1-c1ccc(-c2c[nH]c3ncc(-c4ccc5c(c4)CC[C@@H](N4C6COCC4C6)CC5)cc23)nc1 [Example 97, 6-[(7S)-2-{3-[5-(2-Methylphenyl)pyridin-2-yl]-1H-pyrrolo[2,3-b]pyridin-5-yl}-6,7,8,9-tetrahydro-5H-benzo[7]annulen-7-yl]-3-oxa-6-azabicyclo[3.1.1]heptane] | > 1000 | > 1000
Cc1cccnc1-c1ccc(-c2n[nH]c3ncc(-c4ccc5c(c4)CC[C@@](C)(N4CCC[C@H]4C)CC5)cc23)cc1 [Example 163, 3-Methyl-2-(4-{5-[(7S)-7-methyl-7-[(2R)-2-methylpyrrolidin-1-yl]-6,7,8,9-tetrahydro-5H-benzo[7]annulen-2-yl]-2H-pyrazolo[3,4-b]pyridin-3-yl}phenyl)pyridine] | < 100 | < 100
Cc1cnc(-c2ccc(-c3n[nH]c4ncc(-c5ccc6c(c5)CC[C@@H](N5C7COCC5C7)CC6)cc34)cc2)c(C)c1 [Example 119, 6-[(7S)-2-{3-[4-(3,5-Dimethylpyridin-2-yl)phenyl]-1H-pyrazolo[3,4-b]pyridin-5-yl}-6,7,8,9-tetrahydro-5H-benzo[7]annulen-7-yl]-3-oxa-6-azabicyclo[3.1.1]heptane] | < 100 | < 100
O=C1CCCCN1c1cccnc1-c1ccc(-c2n[nH]c3ncc(-c4ccc5c(c4)CC[C@@H](N4C6COCC4C6)CC5)cc23)cc1 [Example 127, 1-[2-(4-{5-[(7S)-7-{3-Oxa-6-azabicyclo[3.1.1]heptan-6-yl}-6,7,8,9-tetrahydro-5H-benzo[7]annulen-2-yl]-1H-pyrazolo[3,4-b]pyridin-3-yl}phenyl)pyridin-3-yl]piperidin-2-one] | 100 to 1000 | < 100
Cc1cc(-c2ncccc2C)ccc1-c1n[nH]c2ncc(-c3ccc4c(c3)CC[C@@H](N3C5COCC3C5)CC4)cc12 [Example 30, 6-[(7S)-3-[3-[2-Methyl-4-(3-methylpyridin-2-yl)phenyl]-1H-pyrazolo[3,4-b]pyridin-5-yl]-6,7,8,9-tetrahydro-5H-benzo[7]annulen-7-yl]-3-oxa-6-azabicyclo[3.1.1]heptane] | > 1000 | < 100
O=C(c1cccnc1-c1ccc(-c2c[nH]c3ncc(-c4ccc5c(c4)CC[C@@H](N4C6COCC4C6)CC5)cc23)cc1)N1CCCC1 [Example 171, 6-[(7S)-2-(3-{4-[3-(Pyrrolidine-1-carbonyl)pyridin-2-yl]phenyl}-1H-pyrrolo[2,3-b]pyridin-5-yl)-6,7,8,9-tetrahydro-5H-benzo[7]annulen-7-yl]-3-oxa-6-azabicyclo[3.1.1]heptane] | 100 to 1000 | 100 to 1000
FC(F)(F)Oc1cccnc1-c1ccc(-c2c[nH]c3ncc(-c4ccc5c(c4)CC[C@@H](N4C6COCC4C6)CC5)cc23)cc1 [Example 103, 6-[(7S)-2-(3-{4-[3-(Trifluoromethoxy)pyridin-2-yl]phenyl}-1H-pyrrolo[2,3-b]pyridin-5-yl)-6,7,8,9-tetrahydro-5H-benzo[7]annulen-7-yl]-3-oxa-6-azabicyclo[3.1.1]heptane] | > 1000 | > 1000
COC[C@H]1CCN([C@H]2CCc3ccc(-c4cnc5[nH]nc(-c6ccc(-c7ncccc7C)cc6)c5c4)cc3CC2)C1 [Example 132, 2-(4-{5-[(7S)-7-[(3S)-3-(Methoxymethyl)pyrrolidin-1-yl]-6,7,8,9-tetrahydro-5H-benzo[7]annulen-2-yl]-1H-pyrazolo[3,4-b]pyridin-3-yl}phenyl)-3-methylpyridine] | < 100 | < 100
CC(C)(O)c1cccnc1-c1ccc(-c2n[nH]c3ncc(-c4ccc5c(c4)CC[C@@H](N4C6COCC4C6)CC5)cc23)nc1 [Example 100, 2-(6′-{5-[(7S)-7-{3-Oxa-6-azabicyclo[3.1.1]heptan-6-yl}-6,7,8,9-tetrahydro-5H-benzo[7]annulen-2-yl]-1H-pyrazolo[3,4-b]pyridin-3-yl}-[2,3′-bipyridin]-3-yl)propan-2-ol] | > 1000 | 100 to 1000
Cc1cccnc1-c1ccc(-c2c[nH]c3ncc(-c4ccc5c(c4)CC[C@@](C)(N4CCC[C@H]4C)CC5)cc23)cc1 [Example 172, 3-Methyl-2-(4-{5-[(7S)-7-methyl-7-[(2R)-2-methylpyrrolidin-1-yl]-6,7,8,9-tetrahydro-5H-benzo[7]annulen-2-yl]-1H-pyrrolo[2,3-b]pyridin-3-yl}phenyl)pyridine] | < 100 | < 100
c1cncc(-c2ccc(-c3c[nH]c4ncc(-c5ccc6c(c5)CC[C@@H](N5C7COCC5C7)CC6)cc34)cc2)c1 [Example 158, 6-[(7S)-2-{3-[4-(Pyridin-3-yl)phenyl]-1H-pyrrolo[2,3-b]pyridin-5-yl}-6,7,8,9-tetrahydro-5H-benzo[7]annulen-7-yl]-3-oxa-6-azabicyclo[3.1.1]heptane] | > 1000 | > 1000
